Data as given in paper PMC10683482, “Offsetting Low-Affinity Carbohydrate Binding with Covalency to Engage Sugar-Specific Proteins for Tumor-Immune Proximity Induction” (ACS Central Science, 2023).

These molecules were tested on human serum antirhamnose antibody (IgG and IgM) (assay: ELISA covalent engagement of serum anti-rhamnose antibody). Settings: 2 μM compound, 2% human serum, 48 h; rhamnose 100 mM added after incubation.
Type: binding
Experimental: Figure 2 Capacity of Rha-cARMs to specifically covalently engage monoclonal anti-23F and serum anti-rhamnose. A. Chemical structures of the molecules investigated. B. Assessment of covalent vs noncovalent (cARM/ARM) engagement of human serum antirhamnose antibody via an ELISA assay. Each ARM/cARM (2 μM) was incubated with 2% human serum for 48 h and subsequently incubated directly on a streptavidin ELISA plate. Recruitment was evaluated by the addition of anti-IgG or anti-IgM HRP-conjugated secondary antibody with subsequent chromogenic substrate addition. “Comp” represents the addition of competitor rhamnose (500 mM) during 48 h of incubation. “Quench” refers to the addition of competitor rhamnose (100 mM) prior to ELISA plate binding but after 48 h of reaction incubation. C. SDS-PAGE fluorescent image of anti-23F antibody covalently labeled by fluorophore substituted Rha-cARMs (6–8). A representative protein stain associated with each gel is included on the left side of the fluorescent gel images. In all cases, 2 μM anti-23F antibody is incubated with 4 μM cARM (2 equiv) for 24 h in PBS spiked with 10% human serum. Where noted, L-rhamnose (100 mM, Rha. C) was used during incubation as a competitor for specific covalent labeling. Where noted, a free fluoresceine competitor (2.5 mM, Fluor. C) was used to distinguish fluorescein-promoted covalent labeling from rhamnose-promoted. The darker background in gels corresponding to cARM 6, 7 is attributed to the differing capacity of free cARM-fluorophore (fluoroscein vs A647) to be retained in gel, as well as an alternative imaging channel (Cy2 for fluorescein, Cy5 for A647). […] D. Kinetic SDS-PAGE fluorescence imaging experiment to determine Rha-AI-cARM/anti-23F antibody labeling kinetics using A647-cARM (8). cARM 8 (2–100 μM) was incubated with anti-23F antibody (2 μM) for up to 4 h. A representative fluorescence gel image is included corresponding to compound 8 (50 μM) incubated with either anti-23F antibody or isotype human IgG. Densitometry analysis with ImageJ was used to quantify relative band intensities. […] The error is calculated by alternative fits of initial rates data (all within the linear labeling range).
Next, we tested if cARM tool compounds can selectively label endogenous human polyclonal antirhamnose antibodies via ELISA (4 α-O rhamnose or 5 α-S rhamnose) (Figure 2B). cARMs (4, 5) and noncovalent analog ARMs (1, 2) were incubated with 2% human serum for 48 h followed by addition to a streptavidin-ELISA plate. Antibody recruitment to the plate surface was measured via the addition of HRP-conjugated anti-IgG or anti-IgM secondary antibody, followed by a chromogenic substrate. […] In the absence of a competitor, we observed robust absorbance signal in samples incubated with cARM. […]

Structure (SMILES)	antibody binding signal, quench control
C[C@@H]1O[C@@H](SCc2cn(CCOCCNC(=O)OCCOCCOCCOCCOCCOCCOCCOCCNC(=O)CCCC[C@@H]3SC[C@@H]4NC(=O)N[C@@H]43)nn2)[C@H](O)[C@H](O)[C@H]1O [compound 2]	baseline signal
C[C@@H]1O[C@@H](OCc2cn(CCOCCNC(=O)OCCOCCOCCOCCOCCOCCOCCOCCNC(=O)CCCC[C@@H]3SC[C@@H]4NC(=O)N[C@@H]43)nn2)[C@H](O)[C@H](O)[C@H]1O [compound 1]	baseline signal
C[C@@H]1O[C@@H](OCc2cn(CCc3cn(C(=O)OCCOCCOCCOCCOCCOCCOCCOCCNC(=O)CCCC[C@@H]4SC[C@@H]5NC(=O)N[C@@H]54)cn3)nn2)[C@H](O)[C@H](O)[C@H]1O [compound 4]	significant antibody binding signal
